The term Tmax denotes the time at which the peak concentration occurs. In general, Kd refers to the concentration at which binding is half-saturated.

Data set [1] can be described thus: Drug uptake in Swiss outbred mouse brain assessed as time required to reach peak value at 3 mg/kg, iv measured after 60 mins by LC-MS/MS analysis. In kind it is ADME, organism-based.
The nature of data set [2]: Unbound brain-to-plasma concentration ratio in Swiss outbred mouse at 4.4 mg/kg, iv measured after 2 hrs. Conditions: read-out: K(p,uu,brain). Format: ADME, organism-based.
Data set [3] addresses T1, Tyrosine-protein kinase Mer (Mus musculus) (UniProt Q60805).
T1 sequence (whole entry): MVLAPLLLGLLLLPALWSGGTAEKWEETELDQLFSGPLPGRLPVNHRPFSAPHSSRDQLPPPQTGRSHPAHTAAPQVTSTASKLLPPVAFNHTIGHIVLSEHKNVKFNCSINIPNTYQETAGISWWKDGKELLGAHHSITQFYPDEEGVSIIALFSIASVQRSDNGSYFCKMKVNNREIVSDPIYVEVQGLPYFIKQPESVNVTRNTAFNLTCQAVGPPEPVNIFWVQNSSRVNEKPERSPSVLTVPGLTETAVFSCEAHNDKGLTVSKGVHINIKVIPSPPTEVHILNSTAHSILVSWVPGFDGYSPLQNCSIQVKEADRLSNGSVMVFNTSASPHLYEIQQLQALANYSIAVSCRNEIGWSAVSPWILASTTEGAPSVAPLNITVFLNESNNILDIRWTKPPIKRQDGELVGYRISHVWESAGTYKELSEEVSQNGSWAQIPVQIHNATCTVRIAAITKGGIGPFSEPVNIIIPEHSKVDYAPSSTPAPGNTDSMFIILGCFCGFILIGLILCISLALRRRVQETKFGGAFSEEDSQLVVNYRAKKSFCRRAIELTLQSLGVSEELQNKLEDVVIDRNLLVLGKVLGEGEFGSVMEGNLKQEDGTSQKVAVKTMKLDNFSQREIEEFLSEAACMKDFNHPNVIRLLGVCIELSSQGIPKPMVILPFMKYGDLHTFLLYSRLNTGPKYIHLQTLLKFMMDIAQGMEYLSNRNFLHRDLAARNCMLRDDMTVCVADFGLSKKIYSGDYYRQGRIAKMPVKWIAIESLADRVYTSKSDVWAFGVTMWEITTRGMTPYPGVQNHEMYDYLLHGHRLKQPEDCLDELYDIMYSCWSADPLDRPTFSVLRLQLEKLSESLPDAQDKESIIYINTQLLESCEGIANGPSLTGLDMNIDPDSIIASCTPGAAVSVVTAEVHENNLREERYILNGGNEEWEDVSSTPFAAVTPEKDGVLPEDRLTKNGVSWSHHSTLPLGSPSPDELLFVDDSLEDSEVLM
As to the kind of experiment: Binding affinity to MERTK in cuprizone-challenged C57BL/6 mouse whole brain assessed as maximum binding at 18.1 nM by autoradiography. Format: tissue-based. Conditions: tested as the 18F-labelled form.

In data set [4] the target is T1, Tyrosine-protein kinase Mer (Mus musculus). As to the kind of experiment: Binding affinity to MERTK in cuprizone-challenged C57BL/6 mouse brain CC/HC region assessed as maximum binding at 18.1 nM by autoradiography. In kind it is tissue-based. The following applies: tested as the 18F-labelled form.
Data set [5] deals with T2, Tyrosine-protein kinase Mer (Mus musculus, UniProt Q60805).
T2 sequence (Q60805 whole entry): T1 sequence (whole entry)
As to the kind of experiment: Binding affinity to MERTK in cuprizone-challenged C57BL/6 mouse whole brain assessed as dissociation constant at 18.1 nM by autoradiography. In kind it is tissue-based.

A short description of data set [6]: Retention time of the compound by HPLC analysis. Format: physicochemical.
The nature of data set [7]: Retention time of the compound by UV-Vis spectroscopy analysis. Format: physicochemical.
Data set [8] is described as follows: Drug uptake in heart of cuprizone-challenged C57BL/6 mouse at 4.4 mg/kg, iv by PET imaging. Format: ADME, organism-based. Conditions: in vivo.
Data set [9] in a line: Drug uptake in brain of cuprizone-challenged C57BL/6 mouse at 4.4 mg/kg, iv by PET imaging measured upto 2 mins. Conditions: in vivo. Format: ADME, organism-based.
The target in data set [10] is T2, Tyrosine-protein kinase Mer. As to the kind of experiment: Binding affinity to MERTK in cuprizone-challenged C57BL/6 mouse brain CC/HC region assessed as dissociation constant at 18.1 nM by autoradiography. In kind it is tissue-based.
Data set [11] in a line: Drug uptake in liver of cuprizone-challenged C57BL/6 mouse at 4.4 mg/kg, iv by PET imaging. In kind it is ADME, organism-based. Conditions: in vivo.

For `CCCCNc1ncc(C(=O)NC2CCN(CCCF)CC2)c(N[C@H]2CC[C@H](O)CC2)n1`, the Tmax in data set [1] was found to be 15 min. In data set [2], the Kp uu at 2 h was > 1. The figures for the Bmax in data set [3] and in data set [4] were 422 fmol/mg and 896 fmol/mg, respectively.

Take `CCCCNc1ncc(C(=O)NC2CCN(CCF)CC2)c(N[C@H]2CC[C@H](O)CC2)n1`: in data set [1], the Tmax was 15 min.

As to `CCCCNc1ncc(C(=O)NC2CCN(CCC[18F])CC2)c(N[C@H]2CC[C@H](O)CC2)n1`, the Kd came to 12.6 nM in data set [5] and 19.7 nM in [10]. The results for the Retention_time in data set [6] and in [7] were 18.57 min and 18.8 min, respectively. In addition, the Drug uptake result is reported as “<= 0.24%” in data set [8], 0.023% in [9] and “<= 0.24%” in [11].

The values above are taken from ChEMBL document CHEMBL5154642, “Development of [18F]MIPS15692, a radiotracer with in vitro proof-of-concept for the imaging of MER tyrosine kinase (MERTK) in neuroinflammatory disease” (Eur J Med Chem, 2021).
